For this assay, the target named is T1, FPRL-1 (Homo sapiens, UniProt P25090).
T1 construct: expressed in transfected cells; host or cells: CHO-Gα16 cells stably expressing FPRL1
T1 sequence (P25090 1-351): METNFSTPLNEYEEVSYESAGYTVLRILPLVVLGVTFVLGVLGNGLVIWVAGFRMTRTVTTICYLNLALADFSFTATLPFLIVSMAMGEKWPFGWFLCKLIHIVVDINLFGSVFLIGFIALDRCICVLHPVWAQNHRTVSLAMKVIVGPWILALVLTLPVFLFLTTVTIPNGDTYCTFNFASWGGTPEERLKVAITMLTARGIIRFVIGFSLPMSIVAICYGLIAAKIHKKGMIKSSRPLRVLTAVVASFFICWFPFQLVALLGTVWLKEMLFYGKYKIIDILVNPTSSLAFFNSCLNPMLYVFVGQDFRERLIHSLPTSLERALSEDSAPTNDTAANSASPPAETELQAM
The assay is described as follows: FPRL-1 Ga16-CHO compound-induced calcium activity (FLIPR Tetra). As to conditions: calcium activity on FLIPR Tetra, tested at 0.61 to 10,000 nM. Type of assay: cell-based. On the procedure: HEK-Gα16 and CHO-Gα16 cells stably expressing FPRL1 were cultured in (F12, 10% FBS, 1% PSA, 400 μg/ml geneticin and 50 μg/ml hygromycin) and HEK-Gqi5 cells stable expressing FPR1 were cultured in (DMEM high glucose, 10% FBS, 1% PSA, 400 μg/ml geneticin and 50 μg/ml hygromycin). In general, the day before the experiment, 18,000 cells/well were plated in a 384-well clear bottom poly-d-lysine coated plate. The following day the screening compound-induced calcium activity was assayed on the FLIPR^Tetra. The drug plates were prepared in 384-well microplates using the EP3 and the MultiPROBE robotic liquid handling systems. Compounds were tested at concentrations ranging from 0.61 to 10,000 nM. Results are expressed as EC50 (nM) and efficacy values.

Setting [1] is: CHO-Gα16 cells stably expressing FPRL1, read-out: FPRL-1 Ga16-CHO EC50.

“And” between values parts separate entries of the source, which are not always exact repeats. Identical values can stand only once. Like-named read-outs stand apart in the source and are kept apart here.

Broadly, the EC50 is the concentration needed to bring the measured effect to its halfway point.

As for `CC(C)C1(CC(=O)O)NC(=O)N(NC(=O)Nc2ccc(Br)cc2)C1=O` (stereo not shown) [Compound 81, 2-(1-(3-(4-Bromophenyl)ureido)-4-isopropyl-2,5-dioxoimidazolidin-4-yl)acetic acid], the EC50 under setting [1] was 459 nM. In the case of `CCC1(CCc2ccccc2C(=O)OC)NC(=O)N(NC(=O)Nc2ccc(Br)cc2)C1=O` (stereo not shown) [Compound 60, Methyl 2-(2-(1-(3-(4-bromophenyl)ureido)-4-ethyl-2,5-dioxoimidazolidin-4-yl)ethyl)benzoate], the EC50 (FPRL-1 Ga16-CHO EC50, CHO-Gα16 cells stably expressing FPRL1) amounted to 10.3 nM.

In the case of `CCC1(C(C)C)NC(=O)N(NC(=O)Nc2ccc(Br)cc2F)C1=O` (stereo not shown) [Compound 20, 1-(4-Bromo-2-fluorophenyl)-3-(4-ethyl-4-isopropyl-2,5-dioxoimidazolidin-1-yl)urea], the EC50 under setting [1] was determined as 6.3 nM.

`CC1(CCc2ccncc2)NC(=O)N(NC(=O)Nc2ccc(Br)cc2)C1=O` (stereo not shown) [Compound 54, 1-(4-Bromophenyl)-3-(4-methyl-2,5-dioxo-4-(2-(pyridin-4-yl)ethyl)imidazolidin-1-yl)urea]: the EC50 under setting [1] was 30.2 nM. Regarding `CC(C)C1(CC(=O)NCC(=O)OC(C)(C)C)NC(=O)N(NC(=O)Nc2ccc(Br)cc2)C1=O` (stereo not shown) [Compound 85, tert-Butyl 2-(2-(1-(3-(4-bromophenyl)ureido)-4-isopropyl-2,5-dioxoimidazolidin-4-yl)acetamido)acetate], the EC50 under setting [1] was determined as 302 nM.

Take `CC1(CCc2ccco2)NC(=O)N(NC(=O)Nc2ccc(Br)cc2)C1=O` (stereo not shown) [Compound 35]: the EC50 under setting [1] was 6.9 nM. On the same count and under the same terms, in the case of `CC1(CCc2ccccc2F)NC(=O)N(NC(=O)Nc2ccc(Br)cc2)C1=O` (stereo not shown) [Compound 37, 1-(4-Bromophenyl)-3-(4-(2-fluorophenethyl)-4-methyl-2,5-dioxoimidazolidin-1-yl)urea] it was 14 nM; in that of `CCC1(CC)NC(=O)N(NC(=O)Nc2ccc(SC)cc2)C1=O` [Compound 8, 1-(4-Methylthiophenyl)-3-(4,4-diethyl-2,5-dioxoimidazolidin-1-yl)urea], 37.1 nM.

`COC(=O)c1ccc(CCC2(C)NC(=O)N(NC(=O)Nc3ccc(Br)cc3)C2=O)cc1` (stereo not shown) [Compound 58, Methyl 4-(2-(1-(3-(4-Bromophenyl)ureido)-4-methyl-2,5-dioxoimidazolidin-4-yl)ethyl)benzoate]: under setting [1], the 50% effective concentration (EC50) worked out at 204 nM. Regarding `CC(C)C1(CC(=O)NCC(N)=O)NC(=O)N(NC(=O)Nc2ccc(Br)cc2)C1=O` (stereo not shown) [Compound 96, N-(2-Amino-2-oxoethyl)-2-(1-(3-(4-bromophenyl)ureido)-4-isopropyl-2,5-dioxoimidazolidin-4-yl)acetamide], the EC50 under setting [1] amounted to 51.3 nM. Regarding `COc1ccc(COCCC2(C(C)C)NC(=O)N(NC(=O)Nc3ccc(Br)cc3)C2=O)cc1` (stereo not shown) [Compound 49, 1-(4-Bromophenyl)-3-(4-isopropyl-4-(2-((4-methoxybenzyl)oxy)ethyl)-2,5-dioxoimidazolidin-1-yl)urea], the EC50 under setting [1] was 232 nM.

`COC(=O)c1ccccc1CCC1(C)NC(=O)N(NC(=O)Nc2ccc(Br)cc2)C1=O` (stereo not shown) [Compound 59, Methyl 2-(2-(1-(3-(4-bromophenyl)ureido)-4-methyl-2,5-dioxoimidazolidin-4-yl)ethyl)benzoate]: the EC50 under setting [1] worked out at 28.9 nM. For the compound `CC1(CCc2ccc(Cl)cc2)NC(=O)N(NC(=O)Nc2ccc(Br)cc2F)C1=O` (stereo not shown) [Compound 34], under setting [1], the EC50 came to 1380 nM. For the compound `Cc1ccc(CCC2(C)NC(=O)N(NC(=O)Nc3ccc(Br)cc3)C2=O)o1` (stereo not shown) [Compound 46, 1-(4-Bromophenyl)-3-(4-methyl-4-(2-(5-methylfuran-2-yl)ethyl)2,5-dioxoimidazolidin-1-yl)urea], the EC50 under setting [1] was 3.5 nM. As for `CC1(CCc2ccco2)NC(=O)N(NC(=O)Nc2ccc(Br)cc2F)C1=O` (stereo not shown) [Compound 36], the concentration for a half-maximal effect (EC50) under setting [1] was 39.8 nM. With `CCC1(CC)NC(=O)N(NC(=O)Nc2ccc(C#N)cc2)C1=O` [Compound 5, 1-(4-Cyanophenyl)-3-(4,4-diethyl-2,5-dioxoimidazolidin-1-yl)urea], under setting [1], the EC50 turned out to be 1230 nM. Turning to `CC1(CCc2ccccc2C(=O)O)NC(=O)N(NC(=O)Nc2ccc(Br)cc2)C1=O` (stereo not shown) [Compound 78, 2-(2-(1-(3-(4-Bromophenyl)ureido)-4-methyl-2,5-dioxoimidazolidin-4-yl)ethyl)benzoic acid], the EC50 under setting [1] came to 17.2 nM. On to `CC1(COc2ccccc2)NC(=O)N(NC(=O)Nc2ccc(Br)cc2F)C1=O` (stereo not shown) [Compound 28, 1-(4-Bromo-2-fluorophenyl)-3-(4-methyl-2,5-dioxo-4-(phenoxymethyl)imidazolidin-1-yl)urea], for which, under setting [1], the EC50 worked out at 52.1 nM. Same read-out and setting: the result for `CC(C)C1(CC(=O)NCCC(=O)O)NC(=O)N(NC(=O)Nc2ccc(Br)cc2)C1=O` (stereo not shown) [Compound 93, 3-(2-(1-(3-(4-Bromophenyl)ureido)-4-isopropyl-2,5-dioxoimidazolidin-4-yl)acetamido)propanoic acid] reads 5.16 nM; that for `CC1(Cc2c[nH]c3ccccc23)NC(=O)N(NC(=O)Nc2ccc(Br)cc2)C1=O` (stereo not shown) [Compound 64, 1-(4-Bromophenyl)-3-[4-(1H-indol-3-ylmethyl)-4-methyl-2,5-dioxoimidazolidin-1-yl]urea], 114 nM. Same read-out and setting: the result for `CC1(CCc2ccc(F)cc2)NC(=O)N(NC(=O)Nc2ccc(Br)cc2F)C1=O` (stereo not shown) [Compound 40, 1-(4-Bromo-2-fluorophenyl)-3-(4-(4-fluorophenethyl)-4-methyl-2,5-dioxoimidazolidin-1-yl)urea] reads 118 nM.

Take `CCc1ccc2[nH]c(C3(C)NC(=O)N(c4ccc(Br)cc4)C3=O)cc2c1` (stereo not shown) [3-(4-Bromophenyl)-5-(5-ethyl-1H-indol-2-yl)-5-methylimidazolidine-2,4-dione]: the EC50 under setting [1] is 2590 nM. `CC(C)C1(CC(=O)NC(CO)CO)NC(=O)N(NC(=O)Nc2ccc(Br)cc2)C1=O` (stereo not shown) [2-[1-{[(4-Bromophenyl)carbamoyl]amino}-2,5-dioxo-4-(propan-2-yl)imidazolidin-4-yl]-N-(1,3-dihydroxypropan-2-yl)acetamide]: under setting [1], the EC50 turned out to be 16.2 nM.

For `CC1(CCc2ccc(O)c(F)c2)NC(=O)N(NC(=O)Nc2ccc(Br)cc2)C1=O` (stereo not shown) [Compound 47, 1-(4-Bromophenyl)-3-(4-(3-fluoro-4-hydroxyphenethyl)-4-methyl-2,5-dioxoimidazolidin-1-yl)urea], the EC50 under setting [1] is 7.9 nM. Turning to `O=C(Nc1ccc(Br)cc1F)NN1C(=O)NC2(CCCCC2)C1=O` [Compound 15, 1-(4-Bromo-2-fluorophenyl)-3-(2,4-dioxo-1,3-diazaspiro[4.5]decan-3-yl)urea], under setting [1], the EC50 was 233 nM. On the same count and under the same terms, the result for `CC1(CCc2ccc(C(=O)O)cc2)NC(=O)N(NC(=O)Nc2ccc(Br)cc2)C1=O` (stereo not shown) [Compound 77, 4-(2-(1-(3-(4-Bromophenyl)ureido)-4-methyl-2,5-dioxoimidazolidin-4-yl)ethyl)benzoic acid] reads 210 nM; that for `CCc1ccc2[nH]c(C3(C)NC(=O)N(NC(=O)Nc4ccc(Br)cc4F)C3=O)cc2c1` (stereo not shown) [Compound 65, 1-(4-Bromo-2-fluorophenyl)-3-[4-(5-ethyl-1H-indol-2-yl)-4-methyl-2,5-dioxoimidazolidin-1-yl]urea], 169 nM; that for `CCC1(CC)NC(=O)N(NC(=O)Nc2ccc(Cl)cc2F)C1=O` [Compound 16, 1-(4-Chloro-2-fluorophenyl)-3-(4,4-diethyl-2,5-dioxoimidazolidin-1-yl)urea], 39 nM. Regarding `CC1(COc2ccccc2)NC(=O)N(NC(=O)Nc2ccc(Br)cc2)C1=O` (stereo not shown) [Compound 25, 1-(4-Bromophenyl)-3-(4-methyl-2,5-dioxo-4-(phenoxymethyl)imidazolidin-1-yl)urea], the EC50 under setting [1] worked out at 22.1 nM. As for `CC1(CCc2cccc(O)c2)NC(=O)N(NC(=O)Nc2ccc(Br)cc2)C1=O` (stereo not shown) [Compound 52, 1-(4-Bromophenyl)-3-(4-(3-hydroxyphenethyl)-4-methyl-2,5-dioxoimidazolidin-1-yl)urea], the EC50 under setting [1] is 1.5 nM and 2.07 nM. As to `CC1(CCc2ccc(O)c(F)c2)NC(=O)N(NC(=O)Nc2ccc(Br)cc2F)C1=O` (stereo not shown) [Compound 48, 1-(4-Bromo-2-fluorophenyl)-3-{4-[2-(3-fluoro-4-hydroxyphenyl)ethyl]-4-methyl-2,5-dioxoimidazolidin-1-yl}urea], the EC50 under setting [1] was determined as 7.4 nM. Still for that read-out and setting: in the case of `CCC1(CCc2ccccc2C(=O)O)NC(=O)N(NC(=O)Nc2ccc(Br)cc2F)C1=O` (stereo not shown) [Compound 80, 2-[2-(1-{[(4-Bromo-2-fluorophenyl)carbamoyl]amino}-4-ethyl-2,5-dioxoimidazolidin-4-yl)ethyl]benzoic acid] it was 11.1 nM; in that of `CC(C)C1(CC(=O)NCCO)NC(=O)N(NC(=O)Nc2ccc(Br)cc2)C1=O` (stereo not shown) [Compound 84, 2-(1-(3-(4-Bromophenyl)ureido)-4-isopropyl-2,5-dioxoimidazolidin-4-yl)-N-(2-hydroxyethyl)acetamide], 16.2 nM. Still for that read-out and setting: the result for `CC1(CCc2ccc(F)cc2)NC(=O)N(NC(=O)Nc2ccc(Br)cc2)C1=O` (stereo not shown) [Compound 39, 1-(4-Bromophenyl)-3-(4-(4-fluorophenethyl)-4-methyl-2,5-dioxoimidazolidin-1-yl)urea] reads 17 nM.

The values above are taken from patent US20130123215A1, “2,5-DIOXOIMIDAZOLIDIN-1-YL-3-PHENYLUREA DERIVATIVES AS FORMYL PEPTIDE RECEPTOR LIKE-1 (FPRL-1) RECEPTOR MODULATORS” (ALLERGAN, INC., priority 2011, published 2013).
